The target in assay [1] is T1, human factor XIa (Homo sapiens, UniProt P03951).
T1 construct: purchased Kordia
Kind of assay: Measurement of FXIa inhibition (fluorogenic peptide substrate Boc-Glu(OBzl)-Ala-Arg-AMC). Type of assay: biochemical. Conditions: factor XIa from Kordia 0.45 nM; 15 min preincubation; 30 min at 22° C.; fluorescence of AMC. How it is done: a.1) Measurement of FXIa Inhibition
The factor XIa inhibition of the substances according to the invention is determined using a biochemical test system which utilizes the reaction of a peptidic factor XIa substrate to determine the enzymatic activity of human factor XIa. Here, factor XIa cleaves from the peptic factor XIa substrate the C-terminal aminomethylcoumarin (AMC), the fluorescence of which is measured. The determinations are carried out in microtitre plates.
Test substances are dissolved in dimethyl sulphoxide and serially diluted in dimethyl sulphoxide (3000 μM to 0.0078 μM; resulting final concentrations in the test: 50 μM to 0.00013 μM). In each case 1 μl of the diluted substance solutions is placed into the wells of white microtitre plates from Greiner (384 wells). Subsequently, the following are added successively: 20 μl of assay buffer (50 mmol/l Tris buffer pH 7.4; 100 mmol/l sodium chloride; 5 mmol/l calcium chloride; 0.1% bovine serum albumin) and 20 μl of factor XIa from Kordia (0.45 nM in assay buffer). After 15 min of incubation, the enzyme reaction is started by addition of 20 μl of the factor XIa substrate Boc-Glu(OBzl)-Ala-Arg-AMC dissolved in assay buffer (10 μM in assay buffer) from Bachem, the mixture is incubated at room temperature (22° C.) for 30 min and fluorescence is then measured (excitation: 360 nm, emission: 460 nm). The measured emissions of the test batches with test substance are compared to those of control batches without test substance (only dimethyl sulphoxide instead of test substance in dimethyl sulphoxide), and IC50 values are calculated from the concentration/activity relationships.

The test system of assay [2] is plasma. Kind of assay: Determination of anticoagulatory activity: activated partial thromboplastin time (aPTT) in plasma. The following applies: in vitro in human and animal plasma (species of Table B not stated); C.K. Prest kit; 37° C., 3 minutes incubation. How it is done:
a.4) Determination of Anticoagulatory Activity
The anticoagulatory activity of the test substances is determined in vitro in human and animal plasma (for example mouse, rat, rabbit, pig and dog plasma). To this end, blood is drawn off in a mixing ratio of sodium citrate/blood of 1:9 using a 0.11 molar sodium citrate solution as receiver. Immediately after the blood has been drawn off, it is mixed thoroughly and centrifuged at about 4000 g for 15 minutes. The supernatant is pipetted off.
The activated partial thromboplastin time (aPTT) is determined in the presence of varying concentrations of test substance or the corresponding solvent using a commercial test kit (C.K. Prest from Diagnostica Stago). The test compounds are incubated with the plasma and the PTT reagent (cephalin, kaolin) at 37° C. for 3 minutes. Coagulation is then started by addition of a 25 mM aqueous calcium chloride solution, and the time when coagulation occurs is determined. The concentration of test substance which brings about a 1.5-fold extension of the aPTT is determined.

SMILES strings stand for the structures. Where a name gives a salt, the structure may show the parent alone.

The IC50 is the concentration at which inhibition is half-maximal.

T1 sequence (P03951 388-625 limits assumed): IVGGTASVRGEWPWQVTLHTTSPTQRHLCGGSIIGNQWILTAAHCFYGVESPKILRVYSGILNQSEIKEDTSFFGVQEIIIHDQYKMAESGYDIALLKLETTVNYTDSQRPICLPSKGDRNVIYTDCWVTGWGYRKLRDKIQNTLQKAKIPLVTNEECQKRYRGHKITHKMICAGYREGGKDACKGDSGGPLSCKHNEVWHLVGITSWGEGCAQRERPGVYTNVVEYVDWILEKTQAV
T1 sequence (P03951 19-387 partner limits assumed): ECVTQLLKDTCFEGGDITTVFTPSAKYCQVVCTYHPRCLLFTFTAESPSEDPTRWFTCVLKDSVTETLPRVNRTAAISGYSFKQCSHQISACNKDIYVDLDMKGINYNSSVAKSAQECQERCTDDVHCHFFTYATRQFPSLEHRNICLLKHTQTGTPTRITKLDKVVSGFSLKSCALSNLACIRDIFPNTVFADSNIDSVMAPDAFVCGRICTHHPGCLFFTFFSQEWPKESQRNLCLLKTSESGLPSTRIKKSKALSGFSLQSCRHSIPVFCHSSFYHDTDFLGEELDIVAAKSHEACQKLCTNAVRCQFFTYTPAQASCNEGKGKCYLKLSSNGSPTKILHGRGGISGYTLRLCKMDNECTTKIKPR

In assay [1], `NC[C@H]1CC[C@H](C(=O)N[C@@H](Cc2ccc(-c3ccccc3C(=O)N3CCNCC3)cc2)C(=O)Nc2ccc(-c3nn[nH]n3)cc2)CC1` [Example 5, trans-4-(Aminomethyl)-N-[(2S)-1-oxo-3-[2′-(piperazin-1-ylcarbonyl)biphenyl-4-yl]-1-{[4-(2H-tetrazol-5-yl)phenyl]amino}propan-2-yl]cyclohexanecarboxamide hydrochloride] displayed an IC50 of 11 nM. Also, the “aPTT (concentration of test substance which brings about a 1.5-fold extension of the aPTT)” value in assay [2] worked out at 0.32 µmol/L.

On to `NCC(=O)NCC(=O)NCC(=O)Nc1ccccc1-c1ccc(C[C@H](NC(=O)[C@H]2CC[C@H](CN)CC2)C(=O)Nc2ccc(-c3nn[nH]n3)cc2)cc1` [Example 9, Glycylglycyl-N-{4′-[(2S)-2-({[trans-4-(aminomethyl)cyclohexyl]carbonyl}amino)-3-oxo-3-{[4-(2H-tetrazol-5-yl)phenyl]amino}propyl]biphenyl-2-yl}glycinamide hydrochloride], for which the IC50 in assay [1] was 5.3 nM. Also, the “aPTT (concentration of test substance which brings about a 1.5-fold extension of the aPTT)” value in assay [2] worked out at 0.12 µmol/L.

`CN(C)CC(=O)Nc1ccccc1-c1ccc(C[C@H](NC(=O)[C@H]2CC[C@H](CN)CC2)C(=O)Nc2ccc(-c3nn[nH]n3)cc2)cc1` [Example 10, trans-4-(Aminomethyl)-N-[(2S)-3-(2′-{[(dimethylamino)acetyl]amino}biphenyl-4-yl)-1-oxo-1-{[4-(2H-tetrazol-5-yl)phenyl]amino}propan-2-yl]cyclohexanecarboxamide hydrochloride]: 7.2 nM corresponded to half-maximal inhibition in assay [1] (IC50). Also, the “aPTT (concentration of test substance which brings about a 1.5-fold extension of the aPTT)” value in assay [2] was 0.23 µmol/L.

Consider `NC[C@H]1CC[C@H](C(=O)N[C@@H](Cc2ccc(-c3ccccc3C(=O)NC3CCNCC3)cc2)C(=O)Nc2ccc(-c3nn[nH]n3)cc2)CC1` [Example 6, 4′-[(2S)-2-({[trans-4-(Aminomethyl)cyclohexyl]carbonyl}amino)-3-oxo-3-{[4-(2H-tetrazol-5-yl)phenyl]amino}propyl]-N-(piperidin-4-yl)biphenyl-2-carboxamide hydrochloride], for which, in assay [1], inhibition was half-maximal at 39 nM (IC50). Further, in assay [2], the “aPTT (concentration of test substance which brings about a 1.5-fold extension of the aPTT)” value is 0.57 µmol/L.

The compound `CC(C)Oc1ccccc1-c1ccc(C[C@H](NC(=O)[C@H]2CC[C@H](CN)CC2)C(=O)Nc2ccc(-c3nc(C(F)(F)C(F)(F)C(=O)O)n[nH]3)cc2)cc1` [Example 17, 3-[5-(4-{[(2S)-2-({[trans-4-(Aminomethyl)cyclohexyl]carbonyl}amino)-3-(2′-isopropoxybiphenyl-4-yl)propanoyl]amino}phenyl)-1H-1,2,4-triazol-3-yl]-2,2,3,3-tetrafluoropropanoic acid hydrochloride] came in with an IC50 in assay [1] of 1.2 nM. In addition, the “aPTT (concentration of test substance which brings about a 1.5-fold extension of the aPTT)” value in assay [2] stood at 0.22 µmol/L.

Compound `CC(=O)Nc1ccccc1-c1ccc(C[C@H](NC(=O)[C@H]2CC[C@H](CN)CC2)C(=O)Nc2ccc(-c3nn[nH]n3)cc2)cc1` [Example 13, trans-N-[(2S)-3-(2′-Acetamidobiphenyl-4-yl)-1-oxo-1-{[4-(2H-tetrazol-5-yl)phenyl]amino}propan-2-yl]-4-(aminomethyl)cyclohexanecarboxamide hydrochloride] returned an IC50 in assay [1] of 4 nM. The “aPTT (concentration of test substance which brings about a 1.5-fold extension of the aPTT)” value in assay [2] was 0.18 µmol/L.

With `NC[C@H]1CC[C@H](C(=O)N[C@@H](Cc2ccc(-c3ccccc3NC(=O)C3CCNCC3)cc2)C(=O)Nc2ccc(-c3nnn[nH]3)cc2)CC1` [Example 12, N-{4′-[(2S)-2-({[trans-4-(Aminomethyl)cyclohexyl]carbonyl}amino)-3-oxo-3-{[4-(1H-tetrazol-5-yl)phenyl]amino}propyl]biphenyl-2-yl}piperidine-4-carboxamide hydrochloride], in assay [1], inhibition was half-maximal at 8.9 nM (IC50). The “aPTT (concentration of test substance which brings about a 1.5-fold extension of the aPTT)” value in assay [2] came to 0.29 µmol/L.

In assay [1], `NC[C@H]1CC[C@H](C(=O)N[C@@H](Cc2ccc(-c3ccccc3N)cc2)C(=O)Nc2ccc(-c3nn[nH]n3)cc2)CC1` [Example 8, trans-N-[(2S)-3-(2′-Aminobiphenyl-4-yl)-1-oxo-1-{[4-(2H-tetrazol-5-yl)phenyl]amino}propan-2-yl]-4-(aminomethyl)cyclohexanecarboxamide hydrochloride] returned a concentration for half-maximal inhibition (IC50) of 5.5 nM. In addition, the “aPTT (concentration of test substance which brings about a 1.5-fold extension of the aPTT)” value in assay [2] is 0.24 µmol/L.

Consider `CCN(CC)C(=O)c1ccccc1-c1ccc(C[C@H](NC(=O)[C@H]2CC[C@H](CN)CC2)C(=O)Nc2ccc(-c3nn[nH]n3)cc2)cc1` [Example 3, 4′-[(2S)-2-({[trans-4-(Aminomethyl)cyclohexyl]carbonyl}amino)-3-oxo-3-{[4-(2H-tetrazol-5-yl)phenyl]amino}propyl]-N,N-diethylbiphenyl-2-carboxamide hydrochloride], for which 0.7 nM corresponded to half-maximal inhibition in assay [1] (IC50). In assay [2], the “aPTT (concentration of test substance which brings about a 1.5-fold extension of the aPTT)” value stood at 0.12 µmol/L.

`NC[C@H]1CC[C@H](C(=O)N[C@@H](Cc2ccc(-c3ccccc3C(N)=O)cc2)C(=O)Nc2ccc(-c3nc(C(F)(F)C(F)(F)C(=O)O)n[nH]3)cc2)CC1` [Example 15, 3-[5-(4-{[(2S)-2-({[trans-4-(Aminomethyl)cyclohexyl]carbonyl}amino)-3-(2′-carbamoylbiphenyl-4-yl)propanoyl]amino}phenyl)-1H-1,2,4-triazol-3-yl]-2,2,3,3-tetrafluoropropanoic acid hydrochloride] yielded an IC50 in assay [1] of 12 nM. Further, the “aPTT (concentration of test substance which brings about a 1.5-fold extension of the aPTT)” value in assay [2] stood at 0.23 µmol/L.

On to `NC[C@H]1CC[C@H](C(=O)N[C@@H](Cc2ccc(-c3ccccc3CN3CCNCC3)cc2)C(=O)Nc2ccc(-c3nnn[nH]3)cc2)CC1` [Example 16, trans-4-(Aminomethyl)-N-[(2S)-1-oxo-3-[2′-(piperazin-1-ylmethyl)biphenyl-4-yl]-1-{[4-(1H-tetrazol-5-yl)phenyl]amino}propan-2-yl]cyclohexanecarboxamide hydrochloride], for which the IC50 in assay [1] was 6.2 nM. Moreover, in assay [2], the “aPTT (concentration of test substance which brings about a 1.5-fold extension of the aPTT)” value was found to be 0.08 µmol/L.

`NC[C@H]1CC[C@H](C(=O)N[C@@H](Cc2ccc(-c3ccccc3S(=O)(=O)N3CCOCC3)cc2)C(=O)Nc2ccc(-c3nn[nH]n3)cc2)CC1` [Example 1, trans-4-(Aminomethyl)-N-[(2S)-3-[2′-(morpholin-4-ylsulphonyl)biphenyl-4-yl]-1-oxo-1-{[4-(2H-tetrazol-5-yl)phenyl]amino}propan-2-yl]cyclohexanecarboxamide hydrochloride] had an IC50 in assay [1] of 1.9 nM. Moreover, the “aPTT (concentration of test substance which brings about a 1.5-fold extension of the aPTT)” value in assay [2] worked out at 0.17 µmol/L.

The compound `NC[C@H]1CC[C@H](C(=O)N[C@@H](Cc2ccc(-c3ccccc3C(=O)N3CCOCC3)cc2)C(=O)Nc2ccc(-c3nn[nH]n3)cc2)CC1` [Example 2, trans-4-(Aminomethyl)-N-[(2S)-3-[2′-(morpholin-4-ylcarbonyl)biphenyl-4-yl]-1-oxo-1-{[4-(2H-tetrazol-5-yl)phenyl]amino}propan-2-yl]cyclohexanecarboxamide hydrochloride] registered an IC50 in assay [1] of 2.8 nM. The “aPTT (concentration of test substance which brings about a 1.5-fold extension of the aPTT)” value in assay [2] came to 0.03 µmol/L.

The compound `NC[C@H]1CC[C@H](C(=O)N[C@@H](Cc2ccc(-c3ccccc3CO)cc2)C(=O)Nc2ccc(-c3nn[nH]n3)cc2)CC1` [Example 14, trans-4-(Aminomethyl)-N-[(2S)-3-[2′-(hydroxymethyl)biphenyl-4-yl]-1-oxo-1-{[4-(2H-tetrazol-5-yl)phenyl]amino}propan-2-yl]cyclohexanecarboxamide hydrochloride] gave an IC50 in assay [1] of 4.2 nM. For the same compound, in assay [2], the “aPTT (concentration of test substance which brings about a 1.5-fold extension of the aPTT)” value stood at 0.31 µmol/L.

`NC[C@H]1CC[C@H](C(=O)N[C@@H](Cc2ccc(-c3ccccc3C(=O)N3CCCCC3)cc2)C(=O)Nc2ccc(-c3nn[nH]n3)cc2)CC1` [Example 4, trans-4-(Aminomethyl)-N-[(2S)-1-oxo-3-[2′-(piperidin-1-ylcarbonyl)biphenyl-4-yl]-1-{[4-(2H-tetrazol-5-yl)phenyl]amino}propan-2-yl]cyclohexanecarboxamide hydrochloride] came in with a 50% inhibitory concentration (IC50) in assay [1] of 1.3 nM. Also, in assay [2], the “aPTT (concentration of test substance which brings about a 1.5-fold extension of the aPTT)” value turned out to be 0.07 µmol/L.

The values above are taken from patent US20160237045A1, “SUBSTITUTED PHENYLALANINE DERIVATIVES” (BAYER PHARMA AKTIENGESELLSCHAFT, priority 2013, published 2016).
